The results in this text go back to paper PMC10126473 (Frontiers in Pharmacology, 2023).

“And” between values parts separate entries of the source, which are not always exact repeats. Equal entries are not always repeated. Bounds are passed on as bounds.

Data set [1] can be described thus: Parallel artificial membrane permeability assay (PAMPA). The settings on record: pH 7.4. As for the experimental part: The test samples (0.05 mM test article in pH 7.4 buffer with 0.5% DMSO) were added in the donor compartment and were stirred using the Gutbox technology (Pion Inc.) to reduce the aqueous boundary layer. The test article concentrations in the donor and acceptor compartments were measured using a UV plate reader (Nano Quant, Infinite 200 PRO, Tecan Inc., Männedorf, Switzerland).

The nature of data set [2]: Hamster PK and lung concentration study (non-compartmental analysis). As to conditions: for half-life: t1/2 Observed; for Tmax: Tmax Observed. As to the method:
For the IV group, a single bolus IV dose of 3 mg/kg of PDN was administered to 24 hamsters (3 hamsters per time point). For the PO group, a dose of 30 mg/kg of PDN was administered via oral gavage to 21 hamsters (3 hamsters per time point). The formulation used for both IV and PO was 20% HP-β-CD in water (0.6 mg/mL PDN for IV and 3 mg/mL for PO). All dosing solutions were freshly prepared on the day of dosing. […] After collection, tissues were weighed and frozen. All blood samples were centrifuged at 4°C to obtain plasma. Plasma samples were transferred to tubes preloaded with NaF (final concentration at 5 mM in 200 µL plasma) and stored at −80°C until analysis.
For fat tissue, an additional 3-fold volume of acetonitrile was added to the water homogenate and was vortexed in a shaker for another 30 min.
A 10 μ aliquot of samples, blank controls (blank plasma or tissue homogenates), quality controls (QC), and standards were added into 200 μ acetonitrile solution with 100 ng/mL tolbutamide (internal standard, IS). All samples were then thoroughly shaken for 5 min to precipitate proteins. The samples were centrifuged at 3000 rpm and 4°C for 30 min. The supernatant was injected for UPLC-MS/MS analysis.
The mobile phase consisted of 0.1% formic acid in water (A) and 0.1% formic acid in acetonitrile (B), the flow rate was 600 μL/min. […] All analyses were carried out using a Waters Acquity I-Class UPLC interfaced with a Waters Xevo TQ-S mass spectrometer. The mass spectrometer multiple reaction monitoring (MRM) experiment was operated with an ESI source at negative mode with spray voltage of 1 kV, and temperature of 600°C. Both Q1 and Q3 were set at unit resolution. […] The correlation coefficients of the calibration curves were all greater than 0.99. […] The linear range, precision and accuracy of QCs in various tissues and plasma are shown in Supplementary Table S1 and Supplementary Table S2.
The area under the concentration vs. time curve (AUC) was calculated using the linear trapezoidal method. The terminal rate constant (λ) was obtained from the slope of at least three data points of the apparent terminal phase of the log linear concentration vs. time curve. AUC0–∞ was estimated as the sum of the AUC0–t (where t is the time of the last measurable concentration) and Ct/λ. […] Bioavailability (F) was calculated using ratios of dose-normalized AUC of PO and IV administration.

Where [3] appears, read: male, LVG golden Syrian, hamster, in vivo, iv, 3 mg/kg.
Where [4] appears, read: male, LVG golden Syrian, hamster, in vivo, po, 30 mg/kg.
The mark [5] stands for this setting: male, LVG golden Syrian, hamster, in vivo, po, 30 mg/kg, hamsters, PO 30 mg/kg PDN, lung.
The mark [6] stands for this setting: male, LVG golden Syrian, hamster, in vivo, po, 30 mg/kg, hamsters, PO 30 mg/kg PDN, plasma.

In data set [1], `O=C(Nc1ccc([N+](=O)[O-])cc1Cl)c1cc(Cl)ccc1OC(=O)N1CCNCC1` [PDN] displayed an apparent permeability (Papp) at 0.05 mM of over 100 ×10⁻⁶ cm/s. In data set [2] (hamsters, IV 3 mg/kg PDN, lung), the “AUC0-∞ Observed” value is given as 45600 (4266) h*ng/g. Further, the “AUC0-∞ Observed” value in data set [2] (hamsters, PO 30 mg/kg PDN, lung) is reported as 462000 (28500) h*ng/g. For the same compound, the “t1/2 Observed” value in data set [2] (hamsters, PO 30 mg/kg PDN, plasma, 30 mg/kg) is 1.8 (0.13) h. In data set [2] (setting [3]), the AUC(0-inf) was 631 ng·h/mL, the Kp came to 72, the Vd came to 0.74 L and the clearance was 8 mL/min. In addition, the half-life in data set [2] (male, LVG golden Syrian, hamster, in vivo, iv, 3 mg/kg, hamsters, IV 3 mg/kg PDN, lung) is 66 min. Also, in data set [2] (male, LVG golden Syrian, hamster, in vivo, iv, 3 mg/kg, hamsters, IV 3 mg/kg PDN, plasma), the half-life is 66 min. Further, in data set [2] (setting [4]), the area under the curve AUC(0-inf) is 4320 ng·h/mL; the CL/F was 11.5 mL/min; the Cmax was 98000 ng/g and 1060 ng/mL; the Kp came to 107. In data set [2] (setting [4]), this compound showed a Vd/F of 1.78 L and a bioavailability of about 64%. In addition, in data set [2] (setting [5]), the Tmax is 60 min and the half-life is 138 min. In addition, in data set [2] (setting [6]), the Tmax was 30 min and the half-life was about 108 min.
